# Measurements reported in ChEMBL document CHEMBL4190285, “Borapetoside E, a Clerodane Diterpenoid Extracted from Tinospora crispa, Improves Hyperglycemia and Hyperlipidemia in High-Fat-Diet-Induced Type 2 Diabetes Mice” (J Nat Prod, 2017).
# Active and inactive are the calls of the source. The rule behind the calls is not given here.
# Assays:
# [1] = system: Mus musculus; test: Improvement in insulin resistance in high fat diet-induced obese C57BL/6J mouse assessed as increase in insulin sensitivity index at 40 mg/kg, ip pretreated twice daily for 2.5 days followed by insulin challenge at 2 hrs post last dose measured up to 2 hrs by ITT; assay type: functional, organism-based
# [2] = system: Mus musculus; test: Improvement in serum AST level in HFFD-induced obese C57BL/6J mouse assessed as serum AST level at 40 mg/kg, ip administered twice daily for 2.5 days followed by once daily dosing up to 16 days measured at 2 hrs post last dose (reference value: 15.14 +/- 3.84 IU/L); assay type: functional
# [3] = system: Mus musculus; test: Antihyperlipidemic activity in high fat diet-induced obese C57BL/6J mouse assessed as serum total cholesterol levels at 40 mg/kg, ip administered twice daily for 2.5 days measured at 2 hrs post last dose (reference value: 4.56 +/- 1.01 mmol/L); assay type: functional
# [4] = system: Mus musculus; test: Improvement in insulin resistance in high fat diet-induced obese C57BL/6J mouse assessed as increase in phosphorylated AKT ser473 level in liver at 40 mg/kg, ip administered twice daily for 2.5 days measured at 2 hrs post last dose by Western blot analysis; assay type: functional, organism-based
smiles,measurement,setting,value
COC(=O)C1=CCC[C@H]2[C@](C)(C[C@@H](O[C@@H]3O[C@H](CO)[C@@H](O)[C@H](O)[C@H]3O)c3ccoc3)[C@H]3C[C@H](OC3=O)[C@@]12C,Activity,[1],Active
same,Activity,[2],8.61 IU/L
same,Activity,[3],2.24 mmol/L
same,Activity,[4],Active
